Measurements reported in patent publication US20120207766A1, “INTRACELLULAR TOLL-LIKE RECEPTORS PATHWAYS AND AXONAL DEGENERATION” (priority 2009, published 2012).

Experiments:
MOG-myelitis = experiment: MOG peptide myelitis, neurological deficit scoring after systemic mianserin; type: in vivo, mice; conditions: systemic administration; FIG. 12 panels B and C, n=8
Description: Induction of MOG peptide myelitis, and clinical evaluation. MOG peptide myelitis is elicited in 3 month old male mice by subcutaneous flank administration of 300 μg of rodent MOG peptide 35-55 emulsified in CFA. The mice receive 75 ng of pertussis toxin intraperitoneally on days 0 and 2, and are weighed and scored daily for neurological deficits by 2 blinded observers. Neurological scoring is on a 5 point scale: limp tail or waddling gait=1; limp tail and waddling gait=2; single limb paresis and ataxia 2.5; double limb paresis=3; single limb paralysis and paresis of a second limb=3.5; full paralysis of 2 limbs=4; and death (or sacrifice owing to inanition=5) (Bannerman et al, Brain 128:1877-1886 2005; Bannerman et al., Glia 55:57-64 2008; and Soulika et al, J Neurosci 29:14965-14979 2009).
Mianserin treatment. Mice are induced with MOG-myelitis as described. Groups of mice initially receive intraperitoneally 1-10 mg/kg/day. The start day can vary between days 5-12 (before disease onset) and 14-20 (after disease onset). Peripheral T cell responses and CNS infiltration are analyzed by flow cytometry. […] The mice are perfused with 4% paraformaldehyde and sections from lumbar spinal cord arestained with various antibodies and analyzed by confocal microscopy. […]

MOG-specific Th17 cell = experiment: Peripheral T cell responses (Th17) by flow cytometry in MOG-myelitis mice; type: in vivo; conditions: systemic administration; FIG. 12 panel A, each bar a single mouse
Description: Mianserin treatment. Mice are induced with MOG-myelitis as described. Groups of mice initially receive intraperitoneally 1-10 mg/kg/day. The start day can vary between days 5-12 (before disease onset) and 14-20 (after disease onset). Peripheral T cell responses and CNS infiltration are analyzed by flow cytometry. Lumbar spinal cords are examined immunohistologically to characterize the degrees of axonal degeneration, secondary demyelination and CNS infiltration by peripheral immune cells during the various stages of MaG-myelitis. The mice are perfused with 4% paraformaldehyde and sections from lumbar spinal cord arestained with various antibodies and analyzed by confocal microscopy. In every step the degree of inflammation, axonal degeneration and demyelination is confirmed by using the following antibodies: CD11b (macrophages), CD3 (T cells), CD11c (dendritic cells), Glial fibrillary acidic protein (GFAP astroglia), Myelin Basic protein (MBP, for myelin), and SMI32 (hypophosphorylated NF—H, disrupted axons). To examine intracellular TLR and partner molecules antibodies against TLR3, 8 and 9, MyD88 and IRAK4, NALP1, ASC, active caspase-1, and IL-1 r3 are used.
Peripheral T cell responses. […]
Flow cytometry. […] Immunostained cells are analyzed using a Cyan FACS (Dako Cytomation).

CN1CCN2c3ccccc3Cc3ccccc3C2C1 (centres unmarked) [mianserin]
neurological symptoms associated with MOG-myelitis (MOG-myelitis): diminishes | MOG-specific Th17 cell generation in the periphery (MOG-specific Th17 cell): does not affect
